Reference: patent publication US6423739B1, “Method for aiding cerebral recovery following neurodegeneration” (Daiichi Pharmaceutical Co., Ltd., priority 2000, dated 2002)

Tests used:
[1] = test system: patients after a stroke (cerebral infarction or cerebral hemorrhage); conditions: post-stroke patients, Ohtomo et al. 1994; cited from earlier work
[2] = test system: hippocampal and cortical rat embryo neurons; assay: Neurite outgrowth in primary cultures of hippocampal and cortical rat embryo neurons; type: cell-based
[3] = test system: rats with cerebral embolism; assay: Watermaze spatial learning and retention test in rats with cerebral embolism; type: in vivo, rat
Excerpt: The mechanism of action of nefiracetam for this indication, which is not bound to the nootropic activity of the drug, is unknown, but it is believed that its surprising effect in improving ADL of a patient after a stroke or in the recovery of, or at least in improving the recovery of, a post-stroke patient, is due to a true brain repair. This assumption is confirmed by the effect of nefiracetam on spatial learning and retention in rats with cerebral embolism, treated for 9 days with nefiracetam or vehicle, starting within 24 hours of embolization.
In male Wistar rats weighing 190-220 g a total of 700 microspheres (48 μm in diameter) were injected into the right common carotid artery of each animal, whereby a quasi-immediate embolism occurs. The embolized animals were randomly divided into 2 groups, each of 13 animals with same neurological deficit, designated as “Control” (embolism plus Vehicle), or “Nefiracetam” (embolism plus nefiracetam 10 mg/kg/day). In addition, a group of 13 “Normal (Sham)” non-embolized animals were used. The administration of nefiracetam or of its vehicle started within the same day of embolization and treatment lasted 9 days. Seven days after embolization, the embolized rats were submitted to a watermaze test, said watermaze being adapted from the Morris water task. The time taken to find the platform (latency) was determined. […]

[4] = test system: post-stroke patients; assay: Controlled clinical trial against placebo, symptom scale measuring Activities of Daily Living; type: in vivo, human
Excerpt: The activity of nefiracetam to improve ADL in post-stroke patients has been discovered during a controlled clinical trial against placebo. The compound has been administered orally to 32 post-stroke patients within six months after the event whilst, concurrently, 27 patients received placebo. The two groups of patients were followed during at least 8 weeks and followed up at the end of week 4 and at the end of week 8 on a symptom scale measuring Activities of Daily Living. […] Among the above 59 patients, 19 received nefiracetam and 10 received placebo within three months after stroke. […] The difference was significant (p=0.035, χ^2 test). […] Thus nefiracetam, when administered early after the event, appears to be the first drug which is able to induce a recovery from stroke or, at least, to improve the recovery from stroke.

Cc1cccc(C)c1NC(=O)CN1CCCC1=O [Nefiracetam, N-(2,6-dimethylphenyl)-2-(2-oxo-1-pyrrolidinyl)acetamide]
Activities of daily living, nefiracetam vs placebo group [1]: no significant difference between the two groups | Neurotrophic effect: neurite outgrowth ([2]; concentrations of 0.1, 1, 10 and 100 micromoles/l): significantly increasing neurite outgrowth | Neurotrophic effect in combination with bFGF ([2]; hippocampal neurons): potentiated by bFGF | Persistence of the effect after washout ([3]; day 17 after embolization): maintained even after washout | Difference in learning ability versus vehicle-treated (control) brain-injured animals ([3]; days 7-9 post-embolism, t-test, p<0.05 compared to control): statistically significant | Patients showing a moderate or remarkable improvement (Activities of Daily Living) ([4]; 19 patients who received nefiracetam within three months after stroke, p=0.035 vs placebo, chi2 test): ~70% | Intellectual dysfunction ([4]; early treatment after stroke): dramatically improved in a high percent of nefiracetam-treated patients | Neurological signs and incontinence ([4]; early treatment after stroke): tends to improve | Improvement on symptom scale measuring Activities of Daily Living ([4]; oral, 32 post-stroke patients treated within six months after the event, followed at week 4 and week 8): moderate or remarkable improvement
